Results: patent US7307044B2, “3-biphenyl-substituted-3-substituted-4-ketolactam and ketolactone and their utilization as pesticide” (Bayer CropScience AG, priority 2001, dated 2007)

Assays:
Assay type in all cases: in vivo
[1] = test system: green peach aphid (Myzus persicae); assay: Myzus test; settings: 500 ppm, cabbage leaves dipped
Method: Myzus Test Solvent: 7 parts by weight of dimethylformamide Emulsifier: 2 parts by weight of alkylaryl polyglycol ether To produce a suitable preparation of active compound, 1 part by weight of active compound is mixed with the stated amounts of solvent and emulsifier, and the concentrate is diluted with emulsifier-containing water to the desired concentration. Cabbage leaves (Brassica oleracea) which are heavily infested by the green peach aphid (Myzus persicae) are treated by being dipped into the preparation of active compound of the desired concentration. After the desired period of time, the kill in % is determined. 100% means that all aphids have been killed; 0% means that none of the aphids have been killed.

[2] = test system: larvae of the mustard beetle (Phaedon cochleariae); assay: Phaedon larvae test; settings: 500 ppm, cabbage leaves dipped
Method: (§1) Phaedon Larvae Test Solvent: 7 parts by weight of dimethylformamide Emulsifier: 2 parts by weight of alkylaryl polyglycol ether To produce a suitable preparation of active compound, 1 part by weight of active compound is mixed with the stated amounts of solvent and emulsifier, and the concentrate is diluted with emulsifier-containing water to the desired concentration. Cabbage leaves (Brassica oleracea) are treated by being dipped into the preparation of active compound of the desired concentration and are populated with larvae of the mustard beetle (Phaedon cochleariae) while the leaves are still moist. After the desired period of time, the kill in % is determined. 100% means that all beetle larvae have been killed; 0% means that none of the beetle larvae have been killed.

[3] = test system: caterpillars of the armyworm (Spodoptera frugiperda); assay: Spodoptera frugiperda test; settings: 500 ppm, cabbage leaves dipped
Method: as §1, with “Spodoptera frugiperda” for “Phaedon Larvae”, “caterpillars” for “larvae”, “armyworm (Spodoptera frugiperda)” for “mustard beetle (Phaedon cochleariae)”, “caterpillars” for “beetle larvae”

[4] = test system: greenhouse red spider mite (Tetranychus urticae); assay: Tetranychus test (OP-resistent/dip treatment); settings: 100 ppm, bean plants dipped
Method: Tetranychus Test (OP-Resistent/Dip Treatment)
Solvent: 7 parts by weight of dimethylformamide
Emulsifier: 2 parts by weight of alkylaryl polyglycol ether
To produce a suitable preparation of active compound, 1 part by weight of active compound is mixed with the stated amounts of solvent and emulsifier, and the concentrate is diluted with emulsifier-containing water to the desired concentration.
Bean plants (Phaseolus vulgaris) which are heavily infested by all stages of the greenhouse red spider mite (Tetranychus urticae) are dipped into a preparation of active compound of the desired concentration.
After the desired period of time, the effect in % is determined. 100% means that all spider mites have been killed; 0% means that none of the spider mites have been killed.

[5] = test system: Alopecurus; assay: Post-emergence test (greenhouse); settings: after three weeks
Method: (§2) Solvent: 5 parts by weight of acetone
(§3) Emulsifier: 1 part by weight of alkylaryl polyglycol ether
(§4) To produce a suitable preparation of active compound, 1 part by weight of active compound is mixed with the stated amount of solvent, the stated amount of emulsifier is added and the concentrate is diluted with water to the desired concentration.
(§5) Test plants of a height of 5-15 cm are sprayed with the preparation of active compound such that the particular amounts of active compound desired are applied per unit area. The concentration of the spray liquor is chosen such that the particular amounts of active compound desired are applied in 1000 l of water/ha.
(§6) After three weeks, the degree of damage to the plants is rated in % damage in comparison to the development of the untreated control.
(§7) The figures denote: • 0%=no effect (like untreated control) • 100%=total destruction

[6] = test system: Avena fatua; assay: Post-emergence test (greenhouse); settings: after three weeks
Method: as §2, §3, §4, §5, §6, §7

[7] = test system: Digitaria; assay: Post-emergence test (greenhouse); settings: 125 g ai/ha, after three weeks
Method: as §2, §3, §4, §5, §6, §7

[8] = test system: Echinochloa; assay: Post-emergence test (greenhouse); settings: after three weeks
Method: as §2, §3, §4, §5, §6, §7

[9] = test system: Setaria; assay: Post-emergence test (greenhouse); settings: after three weeks
Method: as §2, §3, §4, §5, §6, §7

[10] = test system: Sugar beet; assay: Post-emergence test (greenhouse); settings: 125 g ai/ha, after three weeks
Method: as §2, §3, §4, §5, §6, §7

[11] = test system: Plasmopara viticola; assay: Plasmopara test (grapevine)/protective; settings: protective, evaluation 6 days after inoculation
Method: Plasmopara Test (Grapevine)/Protective Solvents: 24.5 parts by weight of acetone • 24.5 parts by weight of dimethylacetamide Emulsifier: 1.0 part by weight of alkylaryl polyglycol ether To produce a suitable preparation of active compound, 1 part by weight of active compound is mixed with the stated amounts of solvent and emulsifier, and the concentrate is diluted with water to the desired concentration. To test for protective activity, young plants are sprayed with the preparation of active compound at the stated application rate. After the spray coating has dried on, the plants are inoculated with an aqueous spore suspension of Plasmopara viticola and then remain in an incubation cabin at 20° C. and 100% relative atmospheric humidity for 1 day. The plants are then placed in a greenhouse at about 21° C. and about 90% atmospheric humidity for 4 days. The plants are then moistened and placed in an incubation cabin for 1 day.

[12] = test system: apple scab pathogen Venturia inaequalis; assay: Venturia test (apple)/protective; settings: protective, evaluation 10 days after inoculation
Method: Venturia Test (Apple)/Protective Solvents: 24.5 parts by weight of acetone • 24.5 parts by weight of dimethylacetamide Emulsifier: 1.0 part by weight of alkylaryl polyglycol ether To produce a suitable preparation of active compound, 1 part by weight of active compound is mixed with the stated amounts of solvent and emulsifier, and the concentrate is diluted with water to the desired concentration. To test for protective activity, young plants are sprayed with the preparation of active compound at the stated application rate. After the spray coating has dried on, the plants are inoculated with an aqueous conidia suspension of the apple scab pathogen Venturia inaequalis and then remain in an incubation cabin at about 20° C. and 100% relative atmospheric humidity for 1 day. The plants are then placed in a greenhouse at about 21° C. and a relative atmospheric humidity of about 90%.

[13] = test system: Alopecurus; assay: Pre-emergence test (greenhouse); settings: 250 g ai/ha, after three weeks
Method: (§8) Pre-Emergence Test Solvent: 5 parts by weight of acetone Emulsifier: 1 part by weight of alkylaryl polyglycol ether To produce a suitable preparation of active compound, 1 part by weight of active compound is mixed with the stated amount of solvent, the stated amount of emulsifier is added and the concentrate is diluted with water to the desired concentration. Seeds of the test plants are sewn in normal soil. After about 24 hours, the soil is sprayed with the preparation of active compound such that the particular amounts of active compound desired are applied per unit area. The concentration of the spray liquor is chosen such that the particular amounts of active compound desired are applied in 1000 l of water/ha. After three weeks, the degree of damage to the plants is rated in % damage in comparison to the development of the untreated control. The figures denote: • 0%=no effect (like untreated control) • 100%=total destruction

[14] = test system: Amaranthus; assay: Pre-emergence test (greenhouse); settings: 250 g ai/ha, after three weeks
Method: as §8

[15] = test system: Avena fatua; assay: Pre-emergence test (greenhouse); settings: 250 g ai/ha, after three weeks
Method: as §8

[16] = test system: Echinochloa; assay: Pre-emergence test (greenhouse); settings: 250 g ai/ha, after three weeks
Method: as §8

[17] = test system: Setaria; assay: Pre-emergence test (greenhouse); settings: 250 g ai/ha, after three weeks
Method: as §8

[18] = test system: Sinapis; assay: Post-emergence test (greenhouse); settings: 250 g ai/ha, after three weeks
Method: as §2, §3, §4, §5, §6, §7

[19] = test system: Amaranthus; assay: Post-emergence test (greenhouse); settings: 250 g ai/ha, after three weeks
Method: as §2, §3, §4, §5, §6, §7

Structure (SMILES): Cc1ccc(-c2ccc(Cl)cc2)cc1C1(Cl)C(=O)NC(C)(C)C1=O (stereo not shown) [Ex. I-1-1]
- Kill rate in % after 6 d [1]: 95%
- Kill rate in % after 7 d [2]: 100%
- Kill rate in % after 7 d [3]: 100%
- Kill rate in % after 7 d [4]: 100%
- degree of damage to the plants in % damage ([5]; 125 g ai/ha): 95%
- degree of damage to the plants in % damage ([6]; 125 g ai/ha): 100%
- degree of damage to the plants in % damage [7]: 90%
- degree of damage to the plants in % damage ([8]; 125 g ai/ha): 100%
- degree of damage to the plants in % damage ([9]; 125 g ai/ha): 100%
- degree of damage to the plants in % damage [10]: 0%
- Emax at 100 g/ha ([11]; Plasmopara viticola, 144 h, read-out: % efficacy): 100%
- Emax at 100 g/ha ([12]; Venturia inaequalis, 240 h, read-out: % efficacy): 97%

Structure (SMILES): CC1(C)NC(=O)C(Cl)(c2cc(-c3ccc(Cl)cc3)ccc2Cl)C1=O (stereo not shown) [Ex. I-1-2]
- Kill rate in % after 7 d [2]: 100%
- Kill rate in % after 7 d [3]: 100%
- Kill rate in % after 7 d [4]: 100%
- degree of damage to the plants in % damage ([5]; 125 g ai/ha): 90%
- degree of damage to the plants in % damage ([6]; 125 g ai/ha): 95%
- degree of damage to the plants in % damage [7]: 100%
- degree of damage to the plants in % damage ([8]; 125 g ai/ha): 100%
- degree of damage to the plants in % damage ([9]; 125 g ai/ha): 90%
- degree of damage to the plants in % damage [10]: 0%
- % efficacy ([11]; 100 g/ha): 100%
- % efficacy ([12]; 100 g/ha): 96%

Structure (SMILES): COC1CCC2(CC1)NC(=O)C(Cl)(c1c(C)cc(-c3cccc(Cl)c3)cc1C)C2=O (stereo not shown) [Ex. I-1-4]
- degree of damage to the plants in % damage [13]: 95%
- degree of damage to the plants in % damage [14]: 90%
- degree of damage to the plants in % damage [15]: 90%
- degree of damage to the plants in % damage [16]: 100%
- degree of damage to the plants in % damage [17]: 100%
- degree of damage to the plants in % damage ([5]; 250 g ai/ha): 100%
- degree of damage to the plants in % damage ([6]; 250 g ai/ha): 100%
- degree of damage to the plants in % damage ([8]; 250 g ai/ha): 100%
- degree of damage to the plants in % damage ([9]; 250 g ai/ha): 100%
- degree of damage to the plants in % damage [18]: 70%

Structure (SMILES): Cc1cc(-c2ccc(Cl)cc2)cc(Cl)c1C1(Cl)C(=O)NC2(CCCOC2)C1=O (stereo not shown) [Ex. I-1-8]
- Kill rate in % after 7 d [4]: 98%
- degree of damage to the plants in % damage ([5]; 250 g ai/ha): 95%
- degree of damage to the plants in % damage [19]: 70%
- degree of damage to the plants in % damage ([6]; 250 g ai/ha): 95%
- degree of damage to the plants in % damage ([8]; 250 g ai/ha): 100%
- degree of damage to the plants in % damage ([9]; 250 g ai/ha): 100%
- degree of damage to the plants in % damage [18]: 80%

Structure (SMILES): CCOC1CCC2(CC1)NC(=O)C(Cl)(c1c(C)cc(-c3ccc(Cl)cc3)cc1CC)C2=O (stereo not shown) [Ex. I-1-10]
- degree of damage to the plants in % damage ([5]; 250 g ai/ha): 100%
- degree of damage to the plants in % damage [19]: 80%
- degree of damage to the plants in % damage ([6]; 250 g ai/ha): 100%
- degree of damage to the plants in % damage ([8]; 250 g ai/ha): 100%
- degree of damage to the plants in % damage ([9]; 250 g ai/ha): 100%
- degree of damage to the plants in % damage [18]: 80%
